Format in all cases: cell-based
The test system of series [1] is recombinant NL4-3 virus (Renilla luciferase) in MT-2 cells. The experiment in a line: HIV cell culture assay (antiviral activity, luciferase readout). How it is done:
HIV cell culture assay—MT-2 cells, 293T cells and the proviral DNA clone of NL4-3 virus were obtained from the NIH AIDS Research and Reference Reagent Program. MT-2 cells were propagated in RPMI 1640 media supplemented with 10% heat inactivated fetal bovine serum (FBS), 100 μg/ml penicillin G and up to 100 units/mL streptomycin. The 293T cells were propagated in DMEM media supplemented with 10% heat inactivated FBS, 100 μg/mL penicillin G and 100 μg/mL streptomycin. A recombinant NL4-3 proviral clone, in which a section of the nef gene was replaced with the Renilla luciferase gene, was used to make the reference virus used in these studies. The recombinant virus was prepared through transfection of the recombinant NL4-3 proviral clone into 293T cells using Transit-293 Transfection Reagent from Mirus Bio LLC (Madison, Wis.). Supernatant was harvested after 2-3 days and the amount of virus present was titered in MT-2 cells using luciferase enzyme activity as a marker by measuring luciferase enzyme activity. Luciferase was quantitated using the EnduRen Live Cell Substrate from Promega (Madison, Wis.). Antiviral activities of compounds toward the recombinant virus were quantified by measuring luciferase activity in MT-2 cells infected for 4-5 days with the recombinant virus in the presence of serial dilutions of the compound.
The 50% effective concentration (EC50) was calculated by using the exponential form of the median effect equation where (Fa)=1/[1+(ED50/drug conc.)^m] (Johnson V A, Byington R T. Infectivity Assay. In Techniques in HIV Research. ed. Aldovini A, Walker B D. 71-76. New York: Stockton Press. 1990).

For a further series, the system named is uninfected MT2 cells. The experiment in a line: Compound cytotoxicity, XTT-based colorimetric assay. To be noted: day 4, XTT. How it is done: (§1) Compound cytotoxicity and the corresponding CC50 values were determined using the same protocol as described in the antiviral assay except that uninfected cells were used. Cytotoxicity was assessed on day 4 in uninfected MT2 cells by using a XTT (2,3-bis[2-Methoxy-4-nitro-5-sulfophenyl]-2H-tetrazolium-5-carboxyanilide inner salt)-based colorimetric assay (Sigma-Aldrich, St Louis, Mo.).

Assay in series [2]: as above
To be noted: human; uninfected MT2 cells, day 4, XTT. How it is done:
as §1
On the technique in general: Formazan colour is commonly taken as a measure of viable cells.

Where [3] appears, read: MT-2 cells infected for 4-5 days with recombinant NL4-3 Renilla luciferase virus.
The mark [4] stands for this setting: Renilla, NL43, MT-2 cells infected for 4-5 days with recombinant NL4-3 Renilla luciferase virus.

pEC50: −log10 of the molar value.

These results are taken from patent US11958834B2, “Inhibitors of human immunodeficiency virus replication” (VIIV HEALTHCARE UK (No. 5) LIMITED, priority 2018, dated 2024).

`Cn1nc(NS(C)(=O)=O)c2c(Cl)ccc(-n3c([C@H](Cc4cc(F)cc(F)c4)NC(=O)Cn4nc(C(F)F)c5c4C(F)(F)[C@@H]4C[C@H]54)nccc3=O)c21` (mixture of isomers) [Example 2, N—((S)-1-(1-(4-chloro-1-methyl-3-(methylsulfonamido)-1H-indazol-7-yl)-6-oxo-1,6-dihydropyrimidin-2-yl)-2-(3,5-difluorophenyl)ethyl)-2-((3bS,4aR)-3-(difluoromethyl)-5,5-difluoro-3b,4,4a,5-tetrahydro-1H-cyclopropa[3,4]cyclopenta[1,2-c]pyrazol-1-yl)acetamide]: the pEC50 (in general, the EC50 on a negative log10 scale, so that one unit is a factor of ten) in series [1] (setting [3]) is 9.93. Also, the CC50 (usually the concentration at which the toxic effect on the cells reaches its halfway point) in the series with uninfected MT2 cells is > 1000 nM.

Turning to `Cn1nc(NS(C)(=O)=O)c2c(Cl)ccc(-n3c([C@H](Cc4cc(F)cc(F)c4)NC(=O)Cn4nc(C(F)F)c5c4C(F)(F)[C@@H]4C[C@H]54)nccc3=O)c21` [Example 4], in series [1] (setting [4]), the pEC50 is 9.26. Further, the cytotoxic concentration (CC50) with uninfected MT2 cells was > 1000 nM.

On to `Cn1nc(NS(C)(=O)=O)c2c(Cl)ccc(-n3c([C@H](Cc4cc(F)cc(F)c4)NC(=O)Cn4nc(C(F)(F)F)c5c4C(F)(F)[C@@H]4C[C@H]54)nccc3=O)c21` [Example 6, N—((S)-1-((1P)-1-(4-chloro-1-methyl-3-(methylsulfonamido)-1H-indazol-7-yl)-6-oxo-1,6-dihydropyrimidin-2-yl)-2-(3,5-difluorophenyl)ethyl)-2-((3bS,4aR)-5,5-difluoro-3-(trifluoromethyl)-3b,4,4a,5-tetrahydro-1H-cyclopropa[3,4]cyclopenta[1,2-c]pyrazol-1-yl)acetamide], for which, in series [1] (setting [4]), the pEC50 was 9.31. Moreover, the CC50 at 4 days in series [2] is > 1000 nM.

On to `Cn1nc(NS(C)(=O)=O)c2c(Cl)ccc(-n3c([C@@H](Cc4cc(F)cc(F)c4)NC(=O)Cn4nc(C(F)(F)F)c5c4C(F)(F)[C@@H]4C[C@H]54)nccc3=O)c21` [Example 5, N—((R)-1-((1M)-1-(4-chloro-1-methyl-3-(methylsulfonamido)-1H-indazol-7-yl)-6-oxo-1,6-dihydropyrimidin-2-yl)-2-(3,5-difluorophenyl)ethyl)-2-((3bS,4aR)-5,5-difluoro-3-(trifluoromethyl)-3b,4,4a,5-tetrahydro-1H-cyclopropa[3,4]cyclopenta[1,2-c]pyrazol-1-yl)acetamide], for which, in series [1] (setting [4]), the pEC50 was 7.15. In series [2], the half-maximal cytotoxic concentration (CC50) at 4 days is > 1000 nM.

For the compound `Cn1nc(NS(C)(=O)=O)c2c(Cl)ccc(-n3c([C@@H](Cc4cc(F)cc(F)c4)NC(=O)Cn4nc(C(F)F)c5c4C(F)(F)[C@@H]4C[C@H]54)nccc3=O)c21` [Example 3, N—((R)-1-((1M)-1-(4-chloro-1-methyl-3-(methylsulfonamido)-1H-indazol-7-yl)-6-oxo-1,6-dihydropyrimidin-2-yl)-2-(3,5-difluorophenyl)ethyl)-2-((3bS,4aR)-3-(difluoromethyl)-5,5-difluoro-3b,4,4a,5-tetrahydro-1H-cyclopropa[3,4]cyclopenta[1,2-c]pyrazol-1-yl)acetamide], the negative logarithm of the EC50 (pEC50) in series [1] (setting [4]) was 7.90. Also, in series [2], the CC50 at 4 days was > 1000 nM.

`Cn1nc(NS(C)(=O)=O)c2c(Cl)ccc(-n3c([C@H](Cc4cc(F)cc(F)c4)NC(=O)Cn4nc(C(F)F)c5c4C(F)(F)[C@@H]4C[C@H]54)nccc3=O)c21` (mixture of isomers) [Example 1, N—((S)-1-(1-(4-chloro-1-methyl-3-(methylsulfonamido)-1H-indazol-7-yl)-6-oxo-1,6-dihydropyrimidin-2-yl)-2-(3,5-difluorophenyl)ethyl)-2-((3bS,4aR)-3-(difluoromethyl)-5,5-difluoro-3b,4,4a,5-tetrahydro-1H-cyclopropa[3,4]cyclopenta[1,2-c]pyrazol-1-yl)acetamide]: in series [1] (setting [3]), the negative logarithm of the EC50 (pEC50) was 7.49. In series [2], the cytotoxic concentration (CC50) at 4 days is > 1000 nM.
